Article PMC9855386, “Obtaining a Monoclonal Antibody against a Novel Prometryn-Like Hapten and Characterization of Its Selectivity for Triazine Herbicides” (Biosensors, 2022)

Legend:
[1] = tested on: 7D4 mAb (mouse monoclonal anti-prometryn antibody); assay: ic-ELISA cross-reactivity of the 7D4 mAb with triazines; format: binding; conditions: for Cross-Reactivity: relative to prometryn = 100%
Protocol: (§1) The ic-ELISA method was used to screen the best-performing fusion mouse sera. They were used to establish the standard curve of antibodies by detecting the supernatant of positive cells. The buffer required for ic-ELISA was the same as previously reported. The specific steps of the operation are as follows: (1) The coated antigen was added to the microplate by diluting it with the required coating solutions (CBS, pH 9.6, 0.05 mol/L). Each well contained 100 µL, which was incubated at 37 °C for three h before being washed three times with washing buffer (PBST, PBS containing 0.1% Tween-20). (2) With sample dilution buffer (PBSTG, PBST containing 0.1% gelatin), the standard prometryn sample and the antiserum/antibody from mice were diluted to the required concentration. The microplate was incubated for 30 min at 37 °C with 50 µL of diluted antiserum or antibody and standard samples of various concentrations. PBST was used three times to wash the dishes. (3) Then, 100 µL of PBSTG-diluent IgG HRP (labeled goat anti-mouse IgG with HRP) was added to each well. After 30 min at 37 °C, the plate was cleaned three times with PBST. (4) Each well was incubated for 15 min in the dark at 25 °C with 100 µL of TMB color developing solution. To stop the reaction, 50 µL of the hydrochloric acid solution was added to each well. The absorbance at OD450 nm was measured with a TECAN Infinite M200 PRO microplate reader from Männedorf, Switzerland.
(§2) The ic-ELISA method was used to determine the ideal antibody and antigen mix. The coating antigen and antibody concentration used in the experiment was 1 mg/mL. The dilution multiples of the coating were 1 × 10^3, 2 × 10^3, 4 × 10^3, and 8 × 10^3. The prometryn standard was 1000 ng/mL. The best concentration combination of antigen and antibody was selected to establish the standard curve of the antibody. Prometryn standards were diluted to 1000, 500, 250, 125, 62.5, 31.25, 15.625, 7.8125, 3.90625, and 0 ng/mL, with PBSTG for subsequent ic-ELISA experiments. The standard curve was determined by ic-ELISA. […] Each measured OD value in the curve is the average of three independent repeats. The 7D4 mAb’s inhibition rate was well linearly correlated with the prometryn concentration. […] The 7D4 mAb type was identified as IgG1 using a mouse antibody isotyping kit from Sigma®, St. Louis, MO, USA.
Eleven triazine herbicides were selected to determine their cross-reactivity with 7D4 mAb. […] The cross-reaction rate with the other seven triazines was less than 1%. The hybridoma cell line 7D4 screened in this study can specifically recognize prometryn. […] The cross-reaction rate may vary depending on the immunoassay format and the competitive hapten preparation used.

[2] = tested on: 7D4 mAb; assay: ic-ELISA optimal combination of coated antigen and antibody (Table S3); format: binding, mouse; conditions: prometryn 1000 ng/mL
Protocol: as §1, §2

CSc1nc(NC(C)C)nc(NC(C)C)n1 [Prometryn, 2-methylthio-4,6-di(isopropylamino)-1,3,5-triazobenzene]
IC50 ([1]; ic-ELISA, analyte 1000-15.625 and 0 ng/mL): 3.901 ng/mL
Cross-Reactivity [1]: 100%
Cross-Reactivity ([1]; listed as prometryn): 100%
IR (inhibition rate) ([2]; dilution of immunogen 1×103, dilution of serum 1.6×104): 94%
IR (inhibition rate) ([2]; dilution of immunogen 1×103, dilution of serum 2×103): 97%
IR (inhibition rate) ([2]; dilution of immunogen 1×103, dilution of serum 3.2×104): 92%
IR (inhibition rate) ([2]; dilution of immunogen 1×103, dilution of serum 4×103): 98%
IR (inhibition rate) ([2]; dilution of immunogen 1×103, dilution of serum 8×103): 97%
IR (inhibition rate) ([2]; dilution of immunogen 2×103, dilution of serum 1.6×104): 92%
IR (inhibition rate) ([2]; dilution of immunogen 2×103, dilution of serum 2×103): 98%
IR (inhibition rate) ([2]; dilution of immunogen 2×103, dilution of serum 3.2×104): 85%
IR (inhibition rate) ([2]; dilution of immunogen 2×103, dilution of serum 4×103): 97%
IR (inhibition rate) ([2]; dilution of immunogen 2×103, dilution of serum 8×103): 96%
IR (inhibition rate) ([2]; dilution of immunogen 4×103, dilution of serum 1.6×104): 81%
IR (inhibition rate) ([2]; dilution of immunogen 4×103, dilution of serum 2×103): 97%
IR (inhibition rate) ([2]; dilution of immunogen 4×103, dilution of serum 3.2×104): 71%
IR (inhibition rate) ([2]; dilution of immunogen 4×103, dilution of serum 4×103): 95%
IR (inhibition rate) ([2]; dilution of immunogen 4×103, dilution of serum 8×103): 90%
IR (inhibition rate) ([2]; dilution of immunogen 8×103, dilution of serum 1.6×104): 67%
IR (inhibition rate) ([2]; dilution of immunogen 8×103, dilution of serum 2×103): 93%
IR (inhibition rate) ([2]; dilution of immunogen 8×103, dilution of serum 3.2×104): 55%
IR (inhibition rate) ([2]; dilution of immunogen 8×103, dilution of serum 4×103): 90%
IR (inhibition rate) ([2]; dilution of immunogen 8×103, dilution of serum 8×103): 82%
